How the values were obtained:
[1] = system: Triticum aestivum (spring wheat); assay: Postemergence herbicidal activity of mixtures in cereal crops; assay type: in vivo; details: after 3 weeks
Protocol: (§1) Seeds of the desired test plant species were planted and reared as described in “Evaluation of Postemergence Herbicidal Safening in Cereal Crops” (section 37).
(§2) Treatments consisted of compound (as listed in Tables 6 and 7), fluroxypyr methylheptyl ester (MHE), and clopyralid monoethanolamine (MEA) salt alone and in combination. Weighed amounts were placed in 25 mL glass vials and dissolved in a volume of 97:3 v/v acetone/DMSO to obtain 4.5 mg ai/mL stock solutions. […] The concentrated stock solutions were diluted to 1.5 mg ai/mL with the addition of 2 volumes of an aqueous mixture containing acetone, water, isopropyl alcohol, DMSO, Agri-dex crop oil concentrate, and Triton® X-77 surfactant in a 64.7:26.0:6.7:2.0:0.7:0.01 v/v ratio. A dilution solution was prepared by mixing 1 volume of 97:3 v/v acetone/DMSO and 2 volumes of an aqueous mixture containing acetone, water, isopropyl alcohol, DMSO, Agri-dex crop oil concentrate, and Triton® X-77 surfactant in a 64.7:26.0:6.7:2.0:0.7:0.01 v/v ratio. Compound requirements are based upon a 12 mL application volume at a rate of 187 L/ha. Spray solutions of fluroxypyr MHE, clopyralid MEA, and experimental compound mixtures were prepared by adding the stock solutions to the appropriate amount of dilution solution to form 12 mL spray solution with active ingredients in two- and three-way combinations. Formulated compounds were applied to the plant material with an overhead Mandel track sprayer equipped with a 8002E nozzles calibrated to deliver 187 L/ha over an application area of 0.503 square meters at a spray height of 18 inches (43 cm) above average plant canope. Control plants were sprayed in the same manner with the solvent blank.
(§3) The treated plants and control plants were placed in a greenhouse as described above and watered by sub-irrigation to prevent wash-off of the test compounds. After 3 weeks the condition of the test plants as compared with that of the control plants was determined visually and scored on a scale of 0 to 100 percent where 0 corresponds to no injury and 100 corresponds to complete kill.
(§4) Colby's equation was used to determine the herbicidal effects expected from the mixtures (Colby, S. R. 1967. Calculation of the synergistic and antagonistic response of herbicide combinations. Weeds 15:20-22.).
(§5) The following equation was used to calculate the expected activity of mixtures containing two active ingredients, A and B: Expected=A+B−(A×B/100) • A=observed efficacy of active ingredient A at the same concentration as used in the mixture. • B=observed efficacy of active ingredient B at the same concentration as used in the mixture.
(§6) The following equation was used to calculate the expected activity of mixtures containing three active ingredients, A, B, and C: Expected=A+B+C−(A×B+B×C+A×C)/100+(A×B×C)/10000 • A=observed efficacy of active ingredient A at the same concentration as used in the mixture. • B=observed efficacy of active ingredient B at the same concentration as used in the mixture. • C=observed efficacy of active ingredient C at the same concentration as used in the mixture.

Matricaria chamomilla = assay: as above; assay type: in vivo; details: after 3 weeks
Protocol: as §1, §2, §3, §4, §5, §6

[2] = system: Hordeum vulgare (winter barley); assay: as above; assay type: in vivo; details: after 3 weeks
Protocol: as §1, §2, §3, §4, §5, §6

[3] = system: velvetleaf (Abutilon theophrasti); assay: Preemergence herbicidal activity; assay type: in vivo; details: Abutilon theophrasti, pre-emergence, 480 h; pre-emergent, 140 g ai/ha, after 20-22 days; read-out: % Control ABUTH
Outline: (§7)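 Seeds sown in 70:30 loam (pH about 8.1, about 1.5% organic matter) and sand mix, then sprayed preemergence at 187 L/ha with a track sprayer; controls received solvent blank. Pots kept in greenhouse, about 15 h photoperiod, about 23-29° C. day and 22-28° C. night, top-irrigated.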

[4] = system: lambsquarter (Chenopodium album); assay: Preemergence herbicidal activity; assay type: in vivo; details: Chenopodium album, pre-emergence, 480 h; pre-emergent, 140 g ai/ha, after 20-22 days; read-out: % Control CHEAL
Outline: as §7

[5] = system: redroot pigweed (Amaranthus retroflexus); assay: Preemergence herbicidal activity; assay type: in vivo; details: Amaranthus retroflexus, pre-emergence, 480 h; pre-emergent, 140 g ai/ha, after 20-22 days; read-out: % Control AMARE
Outline: as §7

[6] = system: velvetleaf (Abutilon theophrasti); assay: Postemergence herbicidal activity; assay type: in vivo; details: Abutilon theophrasti, post-emergence, 336 h, post-emergent, 140 g ai/ha, after 14 days; read-out: % Control ABUTH
Outline: (§8)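 Plants grown 7-21 days in greenhouse (about 15 h photoperiod, 23-29° C day, 22-28° C night) to first or second true leaf stage. Compounds in acetone/water/isopropanol/DMSO carrier with crop oil concentrate and Triton X-155 sprayed overhead at 187 L/ha; controls received solvent blank. Plants sub-irrigated afterwards; dose responses analysed by probit analysis.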

[7] = system: lambsquarter (Chenopodium album); assay: Postemergence herbicidal activity; assay type: in vivo; details: Chenopodium album, post-emergence, 336 h, post-emergent, 140 g ai/ha, after 14 days; read-out: % Control CHEAL
Outline: as §8

[8] = system: redroot pigweed (Amaranthus retroflexus); assay: Postemergence herbicidal activity; assay type: in vivo; details: Amaranthus retroflexus, post-emergence, 336 h, post-emergent, 140 g ai/ha, after 14 days; read-out: % Control AMARE
Outline: as §8

Lamium purpureum = assay: Postemergence herbicidal activity in cereal crops; assay type: in vivo; details: Lamium purpureum, post-emergence, 480 h; post-emergent, 17.5 g ai/ha, after 20-22 days; read-out: % Control LAMPU
Outline: (§9)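 Plants are raised in a greenhouse for 7-36 days and used at the second to third true leaf stage. Compounds in a mixed organic–aqueous carrier with crop oil and surfactant are sprayed postemergence at 187 L/ha. Treated plants return to the greenhouse with sub-irrigation, alongside blank-sprayed controls.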

Galium aparine = assay: Postemergence herbicidal activity in cereal crops; assay type: in vivo; details: Galium aparine, post-emergence, 480 h, post-emergent, 17.5 g ai/ha, after 20-22 days; read-out: % Control GALAP
Outline: as §9

barley (Hordeum vulare) = assay: Postemergence herbicidal activity in cereal crops; assay type: in vivo; details: Hordeum, post-emergence, 480 h; crop, post-emergent, 17.5 g ai/ha, after 20-22 days; read-out: % Control HORVS
Outline: as §9

[9] = system: wheat (Triticum aestivum); assay: Postemergence herbicidal activity in cereal crops; assay type: in vivo; details: Triticum aestivum, post-emergence, 480 h; crop, post-emergent, 17.5 g ai/ha, after 20-22 days; read-out: % Control TRZAS
Outline: as §9

Papaver rhoeas = assay: Postemergence herbicidal activity in cereal crops; assay type: in vivo; details: Papaver rhoeas, post-emergence, 480 h, post-emergent, 17.5 g ai/ha, after 20-22 days; read-out: % Control PAPRH
Outline: as §9

Veronica persica = assay: Postemergence herbicidal activity in cereal crops; assay type: in vivo; details: Veronica persica, post-emergence, 480 h, post-emergent, 17.5 g ai/ha, after 20-22 days; read-out: % Control VERPE
Outline: as §9

[10] = system: rice (Orysa sativa var. Japonica); assay: Herbicidal activity in transplanted paddy rice; assay type: in vivo; details: Oryza sativa, 504 h; transplant rice (crop), paddy water application, 35 g ai/ha, after 3 weeks
Outline: (§10)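 Rice seedlings transplanted at second to third leaf stage and weeds from seed were grown in flooded mud pots in a greenhouse (~29/26 °C, 14 h photoperiod). At second or third true leaf stage, acetone stock solutions were injected into the paddy water at the high rate and ½× to 1/16× dilutions. Solvent-blank controls.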

Echinochloa crus-galli = assay: Herbicidal activity in transplanted paddy rice; assay type: in vivo; details: Echinochloa crus-galli, 504 h; paddy water application, 35 g ai/ha, after 3 weeks; read-out: % Control ECHCG
Outline: as §10

Cyperus difformis = assay: Herbicidal activity in transplanted paddy rice; assay type: in vivo; details: Cyperus difformis, 504 h; paddy water application, 35 g ai/ha, after 3 weeks; read-out: % Control CYPDI
Outline: as §10

Monochoria vaginalis = assay: Herbicidal activity in transplanted paddy rice; assay type: in vivo; details: Pontederia vaginalis, 504 h; paddy water application, 35 g ai/ha, after 3 weeks; read-out: % Control MOOVA
Outline: as §10

Scirpus juncoides = assay: Herbicidal activity in transplanted paddy rice; assay type: in vivo; details: Schoenoplectiella juncoides, 504 h; paddy water application, 35 g ai/ha, after 3 weeks; read-out: % Control SCPJU
Outline: as §10

[11] = Table 6, applied alone, 35 g ai/ha
[12] = Table 7, applied alone, 35 g ai/ha
[13] = Table 7, applied alone, 70 g ai/ha

Structure (SMILES)	% Control TRZAS Ob [1, 11] [%]	% Control TRZAS Ob [1, 12] [%]	% Control TRZAS Ob [1, 13] [%]	% Control MATCH Ob (Matricaria chamomilla; [11]) [%]	% Control MATCH Ob (Matricaria chamomilla; [12]) [%]	% Control MATCH Ob (Matricaria chamomilla; [13]) [%]	% Control HORVW Ob [2, 11] [%]	% Control HORVW Ob [2, 12] [%]	% Control HORVW Ob [2, 13] [%]	pest or weed control at 140 g/ha [3] [%]	pest or weed control at 140 g/ha [4] [%]	pest or weed control at 140 g/ha [5] [%]	melting point [°C]	pest or weed control at 140 g/ha [6] [%]	pest or weed control at 140 g/ha [7] [%]	pest or weed control at 140 g/ha [8] [%]	further results
NCCO.O=C(O)c1nc(Cl)ccc1Cl [Clopyralid MEA, clopyralid monoethanolamine (MEA) salt]	0	0	0	20	5	40	0	0	0								
COC(=O)c1nc(-c2ccc(F)c(OC)c2Cl)cc(N)c1Cl [Compound 74, 4-Amino-3-chloro-6-(2-chloro-4-fluoro-3-methoxyphenyl)pyridine-2-carboxylic acid, methyl ester]	25			10			0			100	95	95	145 to 146	100	100	90	
COc1c(C)cc(F)c(-c2cc(N)c(Cl)c(C(=O)O)n2)c1F [Compound 93, 4-Amino-3-chloro-6-(2,6-difluoro-3-methoxy-4-methylphenyl)pyridine-2-carboxylic acid]	15			45			10			100	100	100	167 to 168	100	100	100	
COc1c(Br)ccc(-c2cc(N)c(Cl)c(C(=O)O)n2)c1F [Compound 120, 4-Amino-6-(4-bromo-2-fluoro-3-methoxyphenyl)-3-chloropyridine-2-carboxylic acid]													176 to 177	100	95	90	pest or weed control at 17.5 g/ha (Lamium purpureum): 95%; pest or weed control at 17.5 g/ha (Galium aparine): 80%; pest or weed control at 17.5 g/ha (barley (Hordeum vulare)): 0%; plant injury at 17.5 g/ha [9]: 0%; pest or weed control at 17.5 g/ha (Papaver rhoeas): 95%; pest or weed control at 17.5 g/ha (Veronica persica): 50%; pest or weed control at 35 g/ha [10]: 0%; pest or weed control at 35 g/ha (Echinochloa crus-galli): 40%; pest or weed control at 35 g/ha (Cyperus difformis): 100%; pest or weed control at 35 g/ha (Monochoria vaginalis): 100%; pest or weed control at 35 g/ha (Scirpus juncoides): 95%
CCCCCCC(C)OC(=O)COc1nc(F)c(Cl)c(N)c1Cl (centres unmarked) [Fluroxypyr MHE, fluroxypyr methylheptyl ester]	0	0	0	0	0	0	0	0	0								
